Experimental data: US20230089867A1, “CYCLIC PENTAMER COMPOUNDS AS PROPROTEIN CONVERTASE SUBTILISIN/KEXIN TYPE 9 (PCSK9) INHIBITORS FOR THE TREATMENT OF METABOLIC DISORDER” (Novartis AG, priority 2018, published 2023)
pIC50: −log10 of the molar value.

Target: human PCSK9 (Homo sapiens, UniProt Q8NBP7)
Assay: PCSK9 ligand binding TR-FRET assay (interference with binding of human PCSK9 to human LDLR)
Settings: for Max % inhibition: PCSK9 FRET assay, efficacy (Amax), 100% = 1 uM unlabeled human PCSK9, 0% = DMSO; for pIC50: TR-FRET, human PCSK9 Alexa Fluor 647 / human LDLR extracellular domain-Europium Kryptate, read-out: PCSK9 FRET Assay IC50
Summary of the method: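 Threefold compound dilutions were pre-incubated 30 min with PCSK9, after which 4 nM Europium Kryptate-tagged human LDLR ectodomain was added for a further 2 h.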

human PCSK9, sequence (Q8NBP7 153-692): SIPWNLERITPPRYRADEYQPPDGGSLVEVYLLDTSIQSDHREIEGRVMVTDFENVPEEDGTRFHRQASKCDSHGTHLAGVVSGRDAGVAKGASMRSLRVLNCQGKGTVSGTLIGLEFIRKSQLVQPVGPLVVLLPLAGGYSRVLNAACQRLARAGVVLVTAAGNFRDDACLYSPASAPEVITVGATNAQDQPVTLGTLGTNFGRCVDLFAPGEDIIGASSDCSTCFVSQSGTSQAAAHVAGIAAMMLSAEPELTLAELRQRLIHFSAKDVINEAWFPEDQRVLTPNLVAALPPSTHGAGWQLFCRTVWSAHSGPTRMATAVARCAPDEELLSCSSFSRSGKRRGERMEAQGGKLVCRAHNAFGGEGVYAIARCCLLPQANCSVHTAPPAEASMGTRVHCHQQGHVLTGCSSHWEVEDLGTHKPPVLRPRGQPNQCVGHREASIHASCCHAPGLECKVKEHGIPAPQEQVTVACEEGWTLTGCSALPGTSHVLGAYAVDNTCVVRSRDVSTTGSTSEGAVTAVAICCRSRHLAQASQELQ
human PCSK9, sequence (Q8NBP7 31-152 partner limits assumed): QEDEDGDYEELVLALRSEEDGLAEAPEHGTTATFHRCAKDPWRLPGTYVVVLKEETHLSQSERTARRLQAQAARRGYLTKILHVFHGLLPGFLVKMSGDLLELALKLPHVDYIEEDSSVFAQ

| SMILES | Max % inhibition | pIC50 |
| --- | --- | --- |
| COC[C@@H]1NC(=O)[C@H](C)N(Cc2ccc(Cl)cc2Oc2ccc(-c3cnc(CN(C)C)n3C)cc2)C(=O)C[C@@H](CC2CC2)C(=O)N(C)[C@H]2CCCC[C@@H]2NC(=O)C[C@H](Cc2ccc(Cl)cc2)N(C)C1=O [Compound 290, (4S,7S,10S,14R,16aS,20aS)-11-(4-chloro-2-(4-(2-((dimethylamino)methyl)-1-methyl-1H-imidazol-5-yl)phenoxy)benzyl)-4-(4-chlorobenzyl)-14-(cyclopropylmethyl)-7-(methoxymethyl)-5,10,16-trimethylhexadecahydrobenzo[l][1,4,7,11,14]pentaazacyclooctadecine-2,6,9,12,15(3H)-pentaone] | 79.21% | 8.44 |
| COC[C@@H]1NC(=O)[C@H](C)N(Cc2ccc(Cl)cc2Oc2ccc(-c3cnc(CN(C)C)n3C)cc2)C(=O)C[C@@H](Cc2ccc(C(F)F)cc2)C(=O)N(C)[C@@H](C)CNC(=O)C[C@H](Cc2ccc(Cl)cc2)N(C)C1=O [Compound 57, (2S,5S,8S,13S,16R)-1-(4-chloro-2-(4-(2-((dimethylamino)methyl)-1-methyl-1H-imidazol-5-yl)phenoxy)benzyl)-8-(4-chlorobenzyl)-16-(4-(difluoromethyl)benzyl)-5-(methoxymethyl)-2,7,13,14-tetramethyl-1,4,7,11,14-pentaazacyclooctadecane-3,6,10,15,18-pentaone] | 95.83% | 8.68 |
| COC[C@@H]1NC(=O)[C@H](CC(=O)N2CCOCC2)N(Cc2ccc(Cl)cc2Oc2ccc(-c3cnc(CN(C)C)n3C)cc2)C(=O)C[C@@H](Cc2ccccc2)C(=O)N(C)[C@@H](C)CNC(=O)C[C@H](Cc2ccc(Cl)cc2)N(C)C1=O [Compound 38, (2S,5S,8S,13S,16R)-16-benzyl-1-(4-chloro-2-(4-(2-((dimethylamino)methyl)-1-methyl-1H-imidazol-5-yl)phenoxy)benzyl)-8-(4-chlorobenzyl)-5-(methoxymethyl)-7,13,14-trimethyl-2-(2-morpholino-2-oxoethyl)-1,4,7,11,14-pentaazacyclooctadecane-3,6,10,15,18-pentaone] | 101.48% | 8.68 |
| COC[C@@H]1NC(=O)[C@H](C)N(Cc2ccc(Cl)cc2Oc2ccc(-c3cnc(CN(C)C)n3C)cc2)C(=O)C[C@@H](Cc2cccc[n+]2[O-])C(=O)N(C)[C@H]2CCCC[C@@H]2NC(=O)C[C@H](Cc2ccc(Cl)cc2)N(C)C1=O [Compound 172, 2-(((4S,7S,10S,14R,16aS,20aS)-11-(4-chloro-2-(4-(2-((dimethylamino)methyl)-1-methyl-1H-imidazol-5-yl)phenoxy)benzyl)-4-(4-chlorobenzyl)-7-(methoxymethyl)-5,10,16-trimethyl-2,6,9,12,15-pentaoxodocosahydrobenzo[l][1,4,7,11,14]pentaazacyclooctadecin-14-yl)methyl)pyridine 1-oxide] | 102.44% | 8.85 |
| Cc1c(CN(C)C)ncn1-c1ccc(Oc2cc(Cl)ccc2CN2C(=O)C[C@@H](Cc3ccccc3)C(=O)N(C)[C@H]3CCCC[C@@H]3NC(=O)C[C@H](Cc3ccc(Cl)cc3)N(C)C(=O)[C@H](CO)NC(=O)[C@@H]2C)cc1 [Compound 278, (4S,7S,10S,14R,16aS,20aS)-14-benzyl-11-(4-chloro-2-(4-(4-((dimethylamino)methyl)-5-methyl-1H-imidazol-1-yl)phenoxy)benzyl)-4-(4-chlorobenzyl)-7-(hydroxymethyl)-5,10,16-trimethylhexadecahydrobenzo[l][1,4,7,11,14]pentaazacyclooctadecine-2,6,9,12,15(3H)-pentaone] | 107.17% | 8.89 |
| C=CC[C@@H]1CC(=O)N(Cc2ccc(Cl)cc2Oc2ccc(-c3cnc(CN(C)C)n3C)cc2)[C@@H](CCCN2CCOCC2)C(=O)N[C@@H](COC)C(=O)N(C)[C@@H](Cc2ccc(Cl)cc2)CC(=O)N[C@H]2CCCC[C@@H]2N(C)C1=O [Compound 277, (4S,7S,10S,14R,16aS,20aS)-14-allyl-11-(4-chloro-2-(4-(2-((dimethylamino)methyl)-1-methyl-1H-imidazol-5-yl)phenoxy)benzyl)-4-(4-chlorobenzyl)-7-(methoxymethyl)-5,16-dimethyl-10-(3-morpholinopropyl)hexadecahydrobenzo[l][1,4,7,11,14]pentaazacyclooctadecine-2,6,9,12,15(3H)-pentaone] | 83.22% | 8.60 |
| COC[C@@H]1NC(=O)[C@H](CCN(C)C)N(Cc2ccc(Cl)cc2Oc2ccc(-c3cnc(CN(C)C)n3C)cc2)C(=O)C[C@@H](Cc2ccccc2)C(=O)N(C)[C@H]2CCCC[C@@H]2NC(=O)C[C@H](Cc2ccc(Cl)cc2)N(C)C1=O [Compound 29, (4S,7S,10S,14R,16aS,20aS)-14-benzyl-11-(4-chloro-2-(4-(2-((dimethylamino)methyl)-1-methyl-1H-imidazol-5-yl)phenoxy)benzyl)-4-(4-chlorobenzyl)-10-(2-(dimethylamino)ethyl)-7-(methoxymethyl)-5,16-dimethylhexadecahydrobenzo[l][1,4,7,11,14]pentaazacyclooctadecine-2,6,9,12,15(3H)-pentaone] | 94.90% | 9.22 |
| COC[C@@H]1NC(=O)[C@H](C)N(Cc2ccc(Cl)cc2Oc2ccc(-c3cnc(CN(C)C)n3C)cc2)C(=O)C[C@@H](Cc2ccccc2)C(=O)N(C)[C@H]2CCOC[C@@H]2NC(=O)C[C@H](Cc2ccc(Cl)cc2)N(C)C1=O [Compound 187, (4S,7S,10S,14R,16aS,20aR)-14-benzyl-11-(4-chloro-2-(4-(2-((dimethylamino)methyl)-1-methyl-1H-imidazol-5-yl)phenoxy)benzyl)-4-(4-chlorobenzyl)-7-(methoxymethyl)-5,10,16-trimethyltetradecahydro-1H-pyrano[3,4-l][1,4,7,11,14]pentaazacyclooctadecine-2,6,9,12,15(3H)-pentaone] | 94.30% | 8.89 |
| COC[C@@H]1NC(=O)[C@H](C)N(Cc2ccc(Cl)cc2Oc2ccc(-n3cnc(C(=O)NC(C)C)c3C)cc2)C(=O)C[C@@H](Cc2ccccc2)C(=O)N(C)[C@@H](C)CNC(=O)C[C@H](Cc2ccc(Cl)cc2)N(C)C1=O [Compound 163, 1-(4-(2-(((2S,5S,8S,13S,16R)-16-benzyl-8-(4-chlorobenzyl)-5-(methoxymethyl)-2,7,13,14-tetramethyl-3,6,10,15,18-pentaoxo-1,4,7,11,14-pentaazacyclooctadecan-1-yl)methyl)-5-chlorophenoxy)phenyl)-N-isopropyl-5-methyl-1H-imidazole-4-carboxamide] | 84.60% | 6.87 |
| COC[C@@H]1NC(=O)C(CCN)N(Cc2ccc(Cl)cc2Oc2ccc(-c3cnc(CN(C)C)n3C)cc2)C(=O)C[C@@H](Cc2ccccc2)C(=O)N(C)[C@H]2CCCC[C@@H]2NC(=O)C[C@H](Cc2ccc(Cl)cc2)N(C)C1=O (single isomer, unassigned) [Compound 204] | 83.07% | 6.54 |
| COC[C@@H]1NC(=O)[C@H](C)N(Cc2ccc(Cl)cc2Oc2ccc(-c3cnc(CN(C)C)n3C)cc2)C(=O)C[C@@H](OC)C(=O)N(C)[C@@H](C)CNC(=O)C[C@H](Cc2ccc(Cl)cc2)N(C)C1=O [Compound 159, (2S,5S,8S,13S,16R)-1-(4-chloro-2-(4-(2-((dimethylamino)methyl)-1-methyl-1H-imidazol-5-yl)phenoxy)benzyl)-8-(4-chlorobenzyl)-16-methoxy-5-(methoxymethyl)-2,7,13,14-tetramethyl-1,4,7,11,14-pentaazacyclooctadecane-3,6,10,15,18-pentaone] | 55.26% | 7.13 |
